Test system: M. bovis BCG transmembrane potential (ΔΨ)
Assay type: cell-based, Mycobacterium bovis BCG
Conditions: pH 7.2

N#CC(C#N)=NNc1cccc(Cl)c1 [CCCP, carbonyl cyanide m-chlorophenylhydrazone]
DiOC2 red / green fluorescence ratio, M. bovis: 0.086±0.003
